Where two headings read alike, the source gives them in different places.
How the values were obtained:
[1] = test system: Pyricularia oryzae; assay type: in vivo; settings: granule, nursery box, inoculated 30 days after treatment, lesions examined after 7 days
[2] = test system: Pyricularia oryzae; assay type: in vivo; settings: granule, submerged application, inoculated 14 days after treatment, lesions examined after 7 days
[3] = test system: Pyricularia oryzae; assay type: in vivo; settings: inoculated 1 day after spraying, lesions counted after 7 days
[4] = test system: Chilo suppressalis; settings: in vivo
[5] = test system: Chilo suppressalis; settings: in vivo; remark: listed apart in the source
[6] = test system: Chilo suppressalis; settings: in vivo; remark: listed apart in the source
[7] = amount of treated chemical 100 gai/box
[8] = amount of treated chemical 150 gai/box
[9] = amount of treated chemical 60 gai/box

SMILES	Pyricularia oryzae Control value [3, 7]	Mortality (%) [4]	Mortality (%) [5]	Mortality (%) [6]	other results
Cc1cc(C(F)(C(F)(F)F)C(F)(F)F)cc(C)c1NC(=O)c1cccc(NC(=O)c2cccnc2Cl)c1 [Compound 106, N-(2,6-dimethyl-4-heptafluoroisopropyl)phenyl 3-[(2-chloropyridine-3-yl)carbonylamino]benzamide]	–	–	–	–	Pyricularia oryzae Control value ([1]; 5 gai/box): 4; Pyricularia oryzae Control value ([2]; 300 (gai/box)): 3
O=C(Nc1cccc(C(=O)Nc2c(Br)cc(C(F)(C(F)(F)F)C(F)(F)F)cc2SC(F)(F)F)c1)c1ccccc1 [Compound 210]	0	95%	–	–	–
Cc1cc(C(F)(C(F)(F)F)C(F)(F)F)cc(C)c1NC(=O)c1cccc(NC(=O)c2ccccc2)c1F [Compound 601, N-(2,6-dimethyl-4-heptafluoroisopropyl)phenyl 3-(benzoylamino)-2-fluorobenzamide]	2	95%	–	–	–
Cc1cc(C(F)(C(F)(F)F)C(F)(F)F)cc(C)c1NC(=O)c1cccc(NC(=O)c2cccnc2Cl)c1F [Compound 639]	–	–	–	–	Pyricularia oryzae Control value ([1]; 5 gai/box): 5; Pyricularia oryzae Control value ([2]; 300 (gai/box)): 0
Cc1cc(C(F)(C(F)(F)F)C(F)(F)F)cc(C)c1NC(=O)c1cccc(N(C)C(=O)c2ccccc2)c1F [Compound 1208]	5	95%	–	–	–
Cc1cc(C(F)(C(F)(F)F)C(F)(F)F)cc(C)c1NC(=O)c1cccc(N(C)C(=O)c2ccc(C#N)cc2)c1F [Compound 1217]	–	–	95%	95%	Pyricularia oryzae Control value ([1]; 5 gai/box): 0; Pyricularia oryzae Control value ([2]; 300 (gai/box)): 5
Cc1cc(C(F)(C(F)(F)F)C(F)(F)F)cc(C)c1NC(=O)c1cccc(N(C)C(=O)c2cccnc2Cl)c1F [Compound 1245]	–	–	–	–	Pyricularia oryzae Control value ([1]; 5 gai/box): 5; Pyricularia oryzae Control value ([2]; 300 (gai/box)): 0
Cc1cc(C(F)(C(F)(F)F)C(F)(F)F)cc(C)c1NC(=O)c1cccc(N(C)C(=O)c2cccnc2F)c1F [Compound 1246]	–	–	–	–	Pyricularia oryzae Control value ([1]; 5 gai/box): 0; Pyricularia oryzae Control value ([2]; 300 (gai/box)): 4
Cc1cc(C(F)(C(F)(F)F)C(F)(F)F)cc(C)c1NC(=O)c1cccc(NC(=O)OCC(F)(F)F)c1F [Compound 3000]	3	90%	–	–	–
Cc1cc(C(F)(C(F)(F)F)C(F)(F)F)cc(C)c1NC(=O)c1cccc(NC(=O)OC(CF)CF)c1 [Compound 3001]	0	95%	–	–	–
Cc1cc(C(F)(C(F)(F)F)C(F)(F)F)cc(C)c1NC(=O)c1cccc(NC(=O)OCCCl)c1F [Compound 3002]	3	90%	–	–	–
Cc1ccc(C(=O)NCC(NC(=O)OC(C)C)C(C)C)cc1 (stereo not shown) [Compound 3003]	–	0%	0%	0%	Pyricularia oryzae Control value ([1]; 15 gai/box): 100; Pyricularia oryzae Control value [3, 8]: 100; Pyricularia oryzae Control value ([2]; 450 (gai/box)): 100
Cc1ccc(C(=O)NCC(NC(=O)OC(C)C)C(C)(C)C)cc1 (stereo not shown) [Compound 3004]	–	0%	0%	0%	Pyricularia oryzae Control value ([1]; 15 gai/box): 100; Pyricularia oryzae Control value [3, 8]: 100; Pyricularia oryzae Control value ([2]; 450 (gai/box)): 100
CC(C)OC(=O)NC(CNC(=O)c1cc2ccccc2o1)C(C)C (stereo not shown) [Compound 3005]	–	0%	0%	0%	Pyricularia oryzae Control value ([1]; 15 gai/box): 100; Pyricularia oryzae Control value [3, 8]: 100; Pyricularia oryzae Control value ([2]; 450 (gai/box)): 100
Cc1ccc(C(=O)NCC(NC(=O)OCC(F)(F)F)C(C)C)cc1 (stereo not shown) [Compound 3006]	–	0%	0%	0%	Pyricularia oryzae Control value ([1]; 7.5 gai/box): 100; Pyricularia oryzae Control value [3, 9]: 100; Pyricularia oryzae Control value ([2]; 225 (gai/box)): 100
Cc1ccc(C(=O)NCC(NC(=O)OCC(F)(F)F)C(C)(C)C)cc1 (stereo not shown) [Compound 3007]	–	5%	–	–	Pyricularia oryzae Control value ([1]; 7.5 gai/box): 100; Pyricularia oryzae Control value [3, 9]: 100; Pyricularia oryzae Control value ([2]; 225 (gai/box)): 100
CC(C)C(CNC(=O)c1cc2ccccc2o1)NC(=O)OCC(F)(F)F (stereo not shown) [Compound 3008]	–	0%	0%	0%	Pyricularia oryzae Control value ([1]; 7.5 gai/box): 100; Pyricularia oryzae Control value [3, 9]: 100; Pyricularia oryzae Control value ([2]; 225 (gai/box)): 100
